# Earlier results as cited in patent US20150290251A1, “USE OF EGGSHELL MEMBRANE FORMULATIONS TO ALLEVIATE JOINT PAIN” (U.S. NUTRACEUTICALS, LLC d/b/a Valensa International, priority 2009, published 2015).
# What was measured:
# [1] = compared with alpha-tocopherol
# NO, PGE-2 and TNF-Alpha = conditions: induced uveitis; suppression of NO, PGE-2 and TNF-Alpha by directly blocking NO synthase activity
# C-Reactive Protein (CRP) = conditions: human subjects with high risk levels of CRP; three months of treatment
# [2] = test system: cellular membrane lipid peroxidation
# lens epithelial cells = conditions: in vitro lens epithelial cells; umol/L concentrations
# [3] = human trials; 4 mgs/day; compared to untreated subjects
smiles,measurement,setting,value
"CC1=C(/C=C/C(C)=C/C=C/C(C)=C/C=C/C=C(C)/C=C/C=C(C)/C=C/C2=C(C)C(=O)C(O)CC2(C)C)C(C)(C)CC(O)C1=O (stereo not drawn) [Astaxanthin, 3,3′-dihydroxy-β, β-carotene-4, 4′dione]",ability to quench singlet oxygen relative to alpha-tocopherol,[1],over five hundred times
same,ocular anti-inflammatory activity,"NO, PGE-2 and TNF-Alpha",dose dependent ocular anti-inflammatory activity
same,patients whose serum CRP levels dropped below the risk level,C-Reactive Protein (CRP),43 % of patients
same,effect on pro-oxidant activity of Vioxx,[2],completely negates
same,suppression of UVB induced lipid peroxidative mediated cell damage,lens epithelial cells,dramatically suppresses
same,prevention of joint pain following strenuous knee exercise,[3],completely prevented
